Patent US20230340491A1, “COMPOSITIONS AND METHODS FOR TREATING METABOLIC AND CARDIOVASCULAR DISEASES” (UNIVERSITY OF ROCHESTER, priority 2020, published 2023)

Tests used:
HFD-fed C57BL/6J mice = experiment: HFD-induced obesity and NAFLD in C57BL/6J mice treated with CRT0066101; format: in vivo, mouse; settings: 10 mg/kg/day oral
Excerpt: The mouse fat and liver tissues from the experimental mice were harvested after oral administration one and a half month.

[1] = test system: C57BL/6NJ mice fed NASH diet; experiment: NASH diet-induced NASH in C57BL/6NJ mice treated with PKD3 inhibitor; format: in vivo, mouse
Excerpt: The NASH diet D09100310, purchased from Research Diet, is a rodent diet with 40 kcal % Fat (mostly palm oil), 20 kcal % fructose and 2% cholesterol.
Furtherly, to investigate the therapeutic potential of PKD3 inhibitor against NASH, we devised an experimental approach to model advanced NAFLD. […] To explore potential mechanisms by which PKD3 inhibitor treatment protect against diet-induced NASH. We applied RNA sequencing of livers collected at endpoint.

[2] = 100 ug/10 g per day oral, vs vehicle
[3] = 100 ug/10 g per day oral, 6 weeks

Description for WD-fed ApoE-/- mice: To further test whether PKD3 inhibitor prevents NAFLD development, we first studied ApoE^−/− mice with Western diet (WD) induced HS, after 8 weeks on WD, we then treat the mice with PKD3 inhibitor by oral administration (low dose; 100 ug/10 g per day) on continue fed WD condition.

CC[C@@H](N)CNc1ccnc(-c2cc(-c3cnn(C)c3)ccc2O)n1 [CRT0066101]
body weight at end-point (FIG. 2C-2D) (HFD-fed C57BL/6J mice; one and a half month, vs vehicle): dramatically decreased | liver weight (FIG. 2F) (HFD-fed C57BL/6J mice; vs vehicle): significantly reduced | running distance of physical exercise on treadmill (FIG. 2J) (HFD-fed C57BL/6J mice; vs vehicle): increased | serum alanine-aminotransferase (ALT) (FIG. 2I) (HFD-fed C57BL/6J mice; vs vehicle): decreased | serum aspartate aminotransferase (AST) (FIG. 2H) (HFD-fed C57BL/6J mice; vs vehicle): decreased | size of adipocytes (FIG. 2K) (HFD-fed C57BL/6J mice; vs vehicle): considerably diminished | weight of fat tissue (FIG. 2L-2N) (HFD-fed C57BL/6J mice; vs vehicle): considerably diminished | liver histology (FIG. 2G) (HFD-fed C57BL/6J mice; vehicle mice had ballooning, hepatocyte death, severe fibrosis, fatty liver): almost normal liver morphology, little hepatic ballooning and fibrosis as well as lipid deposits | fast blood glucose (FIG. 2R) (HFD-fed C57BL/6J mice; HFD-fed mice): decreased | glucose tolerance, OGTT (FIG. 2P) (HFD-fed C57BL/6J mice; HFD-fed mice): improved | insulin sensitivity, ITT (FIG. 2O) (HFD-fed C57BL/6J mice; HFD-fed mice): improved | non-fast blood glucose (FIG. 2Q) (HFD-fed C57BL/6J mice; HFD-fed mice): decreased | body fat (FIG. 3H-3K) (WD-fed ApoE-/- mice; [2]): radically reduced | body weight at end-point (FIG. 3B) (WD-fed ApoE-/- mice; [2]): decreased | liver weight (FIG. 3E) (WD-fed ApoE-/- mice; [2]): decreased | fibrosis score (FIG. 3F) (WD-fed ApoE-/- mice; H&E, Sirius Red, Oil Red O staining): alleviated | BAT (FIG. 3H-3K) (WD-fed ApoE-/- mice; treat vs non-treat mice): no changes | GFAT (FIG. 3H-3K) (WD-fed ApoE-/- mice; treat vs non-treat mice): no changes | hyperlipidemia, serum (FIG. 3G) (WD-fed ApoE-/- mice; two months treatment): decreased | liver coloration (FIG. 3D) (WD-fed ApoE-/- mice; yellowish coloration in vehicle mice): not any yellow color | BAT size and weight (FIG. 5I-5K) [1, 3]: reduction | NAS (FIG. 5G) [1, 3]: significantly decreased | gFAT size and weight (FIG. 5I-5K) [1, 3]: reduction | hepatic fibrosis (FIG. 5G) [1, 3]: significantly decreased | hepatomegaly induced by NASH diet [1, 3]: markedly attenuated | iFAT size and weight (FIG. 5I-5K) [1, 3]: reduction | liver fat (FIG. 5G) [1, 3]: significantly decreased | liver size (FIG. 5E-5F) [1, 3]: dramatically decreased | liver surface (FIG. 5E) [1, 3]: more smooth | liver weight (FIG. 5F) [1, 3]: dramatically decreased | nonfasting glucose (FIG. 5H) [1, 3]: most potent glucose-lowering effect | body weight at endpoint (FIG. 5C-5D) ([1]; 100 ug/10 g per day oral, 6 weeks, vs vehicle): reduced | body weight curve (FIG. 5B) ([1]; 12 weeks NASH diet, then 100 ug/10 g per day oral for 6 weeks on NASH diet, vs H2O): decreased
